# Data as given in PubChem BioAssay AID1963831 (Molecular Pharmacology Branch, DTP, NCI, 2024).
# Test system: 889142-216-R-J1-PDC complex spheroid viability
# Assay: Anticancer human tumor 889142-216-R-J1-PDC patient-derived bladder carcinoma cell line growth inhibition [POLQ]
# Details: for IC50: curve of first compound; for viability, T/C: stronger effect = lower value
# In short: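 Three-cell-type spheroids modelling solid tumor plus stroma served as the readout system; POL inhibitors were tested individually and in combination, concentration ranges set by clinical Cmax where known.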
# [1] = second compound 0.0316 µM, first compound 0.0316 µM
# [2] = second compound 0.0316 µM, first compound 0.1 µM
# [3] = second compound 0.0316 µM, first compound 0.316 µM
# [4] = second compound 0.0316 µM, first compound 1 µM
# [5] = second compound 0.0316 µM, first compound 3.16 µM
# [6] = second compound 0.0316 µM, first compound 10 µM
# [7] = second compound 0.1 µM, first compound 0.0316 µM
# [8] = second compound 0.1 µM, first compound 0.1 µM
# [9] = second compound 0.1 µM, first compound 0.316 µM
# [10] = second compound 0.1 µM, first compound 1 µM
# [11] = second compound 0.1 µM, first compound 3.16 µM
# [12] = second compound 0.1 µM, first compound 10 µM
# [13] = second compound 0.316 µM, first compound 0.0316 µM
# [14] = second compound 0.316 µM, first compound 0.1 µM
# [15] = second compound 0.316 µM, first compound 0.316 µM
# [16] = second compound 0.316 µM, first compound 1 µM
# [17] = second compound 0.316 µM, first compound 3.16 µM
# [18] = second compound 0.316 µM, first compound 10 µM
# [19] = second compound 1 µM, first compound 0.0316 µM
# [20] = second compound 1 µM, first compound 0.1 µM
# [21] = second compound 1 µM, first compound 0.316 µM
# [22] = second compound 1 µM, first compound 1 µM
# [23] = second compound 1 µM, first compound 3.16 µM
# [24] = second compound 1 µM, first compound 10 µM
# [25] = second compound 3.16 µM, first compound 0.0316 µM
# [26] = second compound 3.16 µM, first compound 0.1 µM
# [27] = second compound 3.16 µM, first compound 0.316 µM
# [28] = second compound 3.16 µM, first compound 1 µM
# [29] = second compound 3.16 µM, first compound 3.16 µM
# [30] = second compound 3.16 µM, first compound 10 µM
# [31] = second compound 10 µM, first compound 0.0316 µM
# [32] = second compound 10 µM, first compound 0.1 µM
# [33] = second compound 10 µM, first compound 0.316 µM
# [34] = second compound 10 µM, first compound 1 µM
# [35] = second compound 10 µM, first compound 3.16 µM
# [36] = second compound 10 µM, first compound 10 µM
# 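Further: spheroids exposed to compounds for seven days.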
# 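Wherever viability, T/C is given: 100% = DMSO vehicle control viability.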
structure (smiles),measurement,setting,value
C=CC(=O)N1CCN(c2nc(=O)n(-c3c(C)ccnc3C(C)C)c3nc(-c4c(O)cccc4F)c(F)cc23)C(C)C1 (stereo unspecified) + Cc1cccc(N(C)C(=O)C2C(O)CCN2c2nc(C)cc(C(F)(F)F)c2C#N)c1,IC50,second compound 0.0316 µM,> 10 µM
same,IC50,second compound 0.1 µM,> 10 µM
same,IC50,second compound 0.316 µM,> 10 µM
same,IC50,second compound 1 µM,> 10 µM
same,IC50,second compound 3.16 µM,> 10 µM
same,IC50,second compound 10 µM,> 10 µM
same,"viability, T/C",[1],108%
same,"viability, T/C",[2],93.5%
same,"viability, T/C",[3],102%
same,"viability, T/C",[4],115%
same,"viability, T/C",[5],122%
same,"viability, T/C",[6],81.4%
same,"viability, T/C",[7],110%
same,"viability, T/C",[8],112%
same,"viability, T/C",[9],100%
same,"viability, T/C",[10],101%
same,"viability, T/C",[11],132%
same,"viability, T/C",[12],96.2%
same,"viability, T/C",[13],97.4%
same,"viability, T/C",[14],119%
same,"viability, T/C",[15],123%
same,"viability, T/C",[16],116%
same,"viability, T/C",[17],129%
same,"viability, T/C",[18],106%
same,"viability, T/C",[19],104%
same,"viability, T/C",[20],107%
same,"viability, T/C",[21],107%
same,"viability, T/C",[22],111%
same,"viability, T/C",[23],124%
same,"viability, T/C",[24],89.3%
same,"viability, T/C",[25],98.5%
same,"viability, T/C",[26],89.3%
same,"viability, T/C",[27],93.8%
same,"viability, T/C",[28],97.2%
same,"viability, T/C",[29],138%
same,"viability, T/C",[30],87.9%
same,"viability, T/C",[31],91.1%
same,"viability, T/C",[32],74.8%
same,"viability, T/C",[33],82.5%
same,"viability, T/C",[34],100%
same,"viability, T/C",[35],106%
same,"viability, T/C",[36],76.7%
O=c1[nH]cc(F)c(=O)[nH]1 + Nc1ccc(C#CCN(C(=O)Cc2ncc(C(F)(F)F)cc2C(F)(F)F)c2ccc(F)cc2)nn1,IC50,second compound 0.0316 µM,> 10 µM
same,IC50,second compound 0.1 µM,> 10 µM
same,IC50,second compound 0.316 µM,> 10 µM
same,IC50,second compound 1 µM,> 10 µM
same,IC50,second compound 3.16 µM,> 10 µM
same,IC50,second compound 10 µM,> 10 µM
same,"viability, T/C",[1],91.6%
same,"viability, T/C",[2],86.2%
same,"viability, T/C",[3],90%
same,"viability, T/C",[4],80%
same,"viability, T/C",[5],81.1%
same,"viability, T/C",[6],60.7%
same,"viability, T/C",[7],91.1%
same,"viability, T/C",[8],78.8%
same,"viability, T/C",[9],58.8%
same,"viability, T/C",[10],75.1%
same,"viability, T/C",[11],67.1%
same,"viability, T/C",[12],69.1%
same,"viability, T/C",[13],108%
same,"viability, T/C",[14],73.9%
same,"viability, T/C",[15],68%
same,"viability, T/C",[16],82.7%
same,"viability, T/C",[17],68.3%
same,"viability, T/C",[18],61.7%
same,"viability, T/C",[19],83.4%
same,"viability, T/C",[20],101%
same,"viability, T/C",[21],79.8%
same,"viability, T/C",[22],66.6%
same,"viability, T/C",[23],61.9%
same,"viability, T/C",[24],60.1%
same,"viability, T/C",[25],82.7%
same,"viability, T/C",[26],89.2%
same,"viability, T/C",[27],83.3%
same,"viability, T/C",[28],67.4%
same,"viability, T/C",[29],72.4%
same,"viability, T/C",[30],73.8%
same,"viability, T/C",[31],109%
same,"viability, T/C",[32],103%
same,"viability, T/C",[33],83.2%
same,"viability, T/C",[34],78.4%
same,"viability, T/C",[35],68.6%
same,"viability, T/C",[36],67.2%
O=C(c1cc(Cc2n[nH]c(=O)c3ccccc23)ccc1F)N1CCN(C(=O)C2CC2)CC1 + COC1C(OC(N)=O)C(O)C(Oc2ccc3c(O)c(NC(=O)c4ccc(O)c(CC=C(C)C)c4)c(=O)oc3c2C)OC1(C)C,IC50,second compound 0.0316 µM,> 10 µM
same,IC50,second compound 0.1 µM,> 10 µM
same,IC50,second compound 0.316 µM,> 10 µM
same,IC50,second compound 1 µM,> 10 µM
same,IC50,second compound 3.16 µM,> 10 µM
same,IC50,second compound 10 µM,> 10 µM
same,"viability, T/C",[1],93%
same,"viability, T/C",[2],92.2%
same,"viability, T/C",[3],77.2%
same,"viability, T/C",[4],103%
same,"viability, T/C",[5],71%
same,"viability, T/C",[6],68.6%
same,"viability, T/C",[7],101%
same,"viability, T/C",[8],117%
same,"viability, T/C",[9],104%
same,"viability, T/C",[10],109%
same,"viability, T/C",[11],80.5%
same,"viability, T/C",[12],83.5%
same,"viability, T/C",[13],94.4%
same,"viability, T/C",[14],111%
same,"viability, T/C",[15],114%
same,"viability, T/C",[16],102%
same,"viability, T/C",[17],95.5%
same,"viability, T/C",[18],72%
same,"viability, T/C",[19],122%
same,"viability, T/C",[20],116%
same,"viability, T/C",[21],109%
same,"viability, T/C",[22],79.3%
same,"viability, T/C",[23],82.5%
same,"viability, T/C",[24],65.5%
same,"viability, T/C",[25],123%
same,"viability, T/C",[26],109%
same,"viability, T/C",[27],104%
same,"viability, T/C",[28],101%
same,"viability, T/C",[29],78.4%
same,"viability, T/C",[30],75.5%
same,"viability, T/C",[31],129%
same,"viability, T/C",[32],106%
same,"viability, T/C",[33],84.4%
same,"viability, T/C",[34],84.8%
same,"viability, T/C",[35],103%
same,"viability, T/C",[36],77.9%
